Experimental data published in the NIST ThermoML archive (doi:10.1016/j.jct.2016.01.016).
Numbers after ± are expanded uncertainties.

Columns and labels:
[1] = Molar enthalpy of transition or fusion; conditions: DSC
[2] = for mass density: 101.33 kPa
[3] = 300 K, Crystal 2, X-ray diffraction
[4] = 300 K, Metastable crystal, X-ray diffraction
[5] = 400 K, Crystal 1, X-ray diffraction

For `NC(=O)CN1CCCC1=O` [2-oxo-1-pyrrolidineacetamide], the “Molar enthalpy of transition or fusion” value ([1]; Crystal 1) was 6.35 ± 0.203 kcal/mol, the “Molar enthalpy of transition or fusion” value ([1]; Metastable crystal) was 0.843 ± 0.208 kcal/mol and the mass density [2, 3] was 1373 ± 2 kg/m3. For the same molecule, the mass density [2, 4] was 1365 ± 2 kg/m3, the molar volume [2, 3] was 0.0001036 ± 4.9e-07 m3/mol and the molar volume [2, 4] was 0.0001042 ± 4.9e-07 m3/mol. For the same molecule, the molar volume ([2]; 310 K, Crystal 2, X-ray diffraction) was 0.0001031 ± 4.9e-07 m3/mol, the molar volume ([2]; 310 K, Metastable crystal, X-ray diffraction) was 0.0001044 ± 4.9e-07 m3/mol and the molar volume ([2]; 320 K, Crystal 2, X-ray diffraction) was 0.0001039 ± 4.9e-07 m3/mol. For the same molecule, the molar volume ([2]; 320 K, Metastable crystal, X-ray diffraction) was 0.0001045 ± 4.9e-07 m3/mol, the molar volume ([2]; 330 K, Crystal 2, X-ray diffraction) was 0.0001036 ± 4.9e-07 m3/mol and the molar volume ([2]; 330 K, Metastable crystal, X-ray diffraction) was 0.0001049 ± 4.9e-07 m3/mol. The molar volume ([2]; 340 K, Crystal 2, X-ray diffraction) was 0.0001042 ± 4.9e-07 m3/mol, the molar volume ([2]; 340 K, Metastable crystal, X-ray diffraction) was 0.0001051 ± 4.9e-07 m3/mol and the molar volume ([2]; 350 K, Crystal 2, X-ray diffraction) was 0.0001042 ± 4.9e-07 m3/mol. It also gave a molar volume ([2]; 350 K, Metastable crystal, X-ray diffraction) of 0.0001054 ± 4.9e-07 m3/mol, a molar volume ([2]; 355 K, Metastable crystal, X-ray diffraction) of 0.0001054 ± 4.9e-07 m3/mol and a molar volume ([2]; 360 K, Crystal 2, X-ray diffraction) of 0.0001047 ± 4.9e-07 m3/mol. For the same molecule, the molar volume ([2]; 360 K, Metastable crystal, X-ray diffraction) was 0.0001055 ± 4.9e-07 m3/mol, the molar volume ([2]; 370 K, Crystal 1, X-ray diffraction) was 0.0001104 ± 4.9e-07 m3/mol and the molar volume ([2]; 370 K, Crystal 2, X-ray diffraction) was 0.0001049 ± 4.9e-07 m3/mol. The molar volume ([2]; 375 K, Crystal 1, X-ray diffraction) was 0.0001105 ± 4.9e-07 m3/mol, the molar volume ([2]; 380 K, Crystal 1, X-ray diffraction) was 0.0001106 ± 4.9e-07 m3/mol and the molar volume ([2]; 385 K, Crystal 1, X-ray diffraction) was 0.0001108 ± 4.9e-07 m3/mol. For the same molecule, the molar volume ([2]; 390 K, Crystal 1, X-ray diffraction) was 0.0001108 ± 4.9e-07 m3/mol, the molar volume ([2]; 395 K, Crystal 1, X-ray diffraction) was 0.000111 ± 4.9e-07 m3/mol and the mass density [2, 5] was 1281 ± 2 kg/m3. The molar volume [2, 5] was 0.000111 ± 4.9e-07 m3/mol, the molar volume ([2]; 405 K, Crystal 1, X-ray diffraction) was 0.0001112 ± 4.9e-07 m3/mol and the molar volume ([2]; 410 K, Crystal 1, X-ray diffraction) was 0.0001112 ± 4.9e-07 m3/mol. It also gave a molar volume ([2]; 423 K, Liquid, Vibrating tube method) of 0.0001228 ± 4.4e-07 m3/mol, a molar volume ([2]; 428 K, Liquid, Vibrating tube method) of 0.0001232 ± 4.4e-07 m3/mol and a molar volume ([2]; 433 K, Liquid, Vibrating tube method) of 0.0001235 ± 4.4e-07 m3/mol. It also gave a molar volume ([2]; 438 K, Liquid, Vibrating tube method) of 0.0001239 ± 4.4e-07 m3/mol, a molar volume ([2]; 443 K, Liquid, Vibrating tube method) of 0.0001241 ± 4.4e-07 m3/mol and a molar volume ([2]; 448 K, Liquid, Vibrating tube method) of 0.0001245 ± 4.4e-07 m3/mol. It also gave a molar volume ([2]; 453 K, Liquid, Vibrating tube method) of 0.0001248 ± 4.4e-07 m3/mol, a molar volume ([2]; 458 K, Liquid, Vibrating tube method) of 0.0001252 ± 4.4e-07 m3/mol and a molar volume ([2]; 463 K, Liquid, Vibrating tube method) of 0.0001255 ± 4.4e-07 m3/mol. For the same molecule, the molar volume ([2]; 468 K, Liquid, Vibrating tube method) was 0.0001259 ± 4.4e-07 m3/mol, the molar volume ([2]; 473 K, Liquid, Vibrating tube method) was 0.0001262 ± 4.4e-07 m3/mol and the Triple point temperature ([2]; Crystal 1, DSC) was 422.95 ± 5.1 K. The Triple point temperature ([2]; Crystal 2, X-ray diffraction) was 370.15 ± 6 K, the Triple point temperature ([2]; Metastable crystal, DSC) was 365.05 ± 5.1 K and the Triple point temperature ([2]; Metastable crystal, X-ray diffraction) was 360.15 ± 6 K.
